Results reported in ChEMBL document CHEMBL4184194, “An appraisal on synthetic and pharmaceutical perspectives of pyrazolo[4,3-d]pyrimidine scaffold” (Bioorg Med Chem, 2018).
≈ marks a conversion by molar mass, not a printed value.

Columns and labels:
[1] = biological target: Cyclin-dependent kinase 1/cyclin B1 (Homo sapiens, UniProt P06493); test: Inhibition of CDK1/CyclinB (unknown origin); type: protein-complex assay
K562 [2] = test: Antiproliferative activity against human K562 cells; type: functional, cell-based
Candida albicans [3] = test: Antimicrobial activity against Candida albicans ATCC 10231 by two-fold serial dilution assay; type: functional
Candida albicans [4] = test: Fungicidal activity against Candida albicans ATCC 10231 by two-fold serial dilution assay; type: functional
Nicotiana tabacum [5] = test: Anticytokinin activity against Nicotiana tabacum; type: functional, organism-based
Nicotiana tabacum [6] = test: Toxicity in Nicotiana tabacum; type: organism-based
Nicotiana tabacum [7] = test: Growth inhibition of cytokinin-autonomous tobacco cells; type: functional; conditions: for TGI: read-out: GI100
Nicotiana tabacum [8] = test: Growth inhibition of cytokinin-requiring tobacco cells; type: functional; conditions: for TGI: read-out: GI100
[9] = biological target: Cyclin-dependent kinase 2/cyclin E1 (Homo sapiens, UniProt P24941); test: Inhibition of recombinant human full length N-terminal GST-tagged CDK2 (M1 to L298 residues)/CyclinE1 (M1 to A395 residues) expressed in baculovirus infected Sf9 insect cells using histone H1 as substrate by [gamma33P]ATP-based assay
MCF7 = test: Growth inhibition of human MCF7 cells after 72 hrs by Calcein AM dye based fluorescence assay; type: functional; conditions: MCF7, 72 h
K562 [10] = test: Growth inhibition of human K562 cells after 72 hrs by Calcein AM dye based fluorescence assay; type: functional; conditions: K562, 72 h
[11] = biological target: Cyclin-dependent kinase 4/cyclin D1 (Homo sapiens, UniProt P11802); test: Inhibition of recombinant human N-terminal GST-tagged CDK4 (S4 to E303 residues)/CyclinD1 (Q4 to I295 residues) expressed in Sf9 insect cells
CDK7/Cyclin H/MNAT1 = CDK7/Cyclin H/MNAT1 (Homo sapiens, UniProt P50613); test: Inhibition of recombinant human full length N-terminal GST/His6-tagged CDK7 (M1 to F346 residues)/N-terminal His6-tagged CyclinH (M1 to L323 residues)/N-terminal His6-tagged MAT1 (M1 to S306 residues) expressed in Sf9 insect cells
Human alphaherpesvirus 1 = test: Antiviral activity against HSV1 MP infected in African green monkey Vero cells assessed as inhibition of plaque formation after 48 hrs; type: functional; conditions: Human alphaherpesvirus 1, MP, read-out: ED50 (the source's name)
CDK6/cyclin D1 = CDK6/cyclin D1 (Homo sapiens, UniProt Q00534); test: Inhibition of recombinant human full length N-terminal GST-tagged CDK6 (M1 to A326 residues)/CyclinD1 (Q4 to I295 residues) expressed in Sf9 insect cells
CDK9/cyclin T1 = CDK9/cyclin T1 (Homo sapiens, UniProt P50750); test: Inhibition of recombinant human full length N-terminal GST/His6-tagged CDK9 (M1 to F372 residues)/N-terminal His6-tagged CyclinT1 (M1 to K726 residues) expressed in Sf9 insect cells
Semliki Forest virus [12] = test: Antiviral activity against Semliki forest virus infected in Swiss Webster mouse assessed as mouse survival at 200 mg/kg, ip measured after 18 to 24 hrs; type: functional
Semliki Forest virus [13] = test: Antiviral activity against Semliki forest virus infected in Swiss Webster mouse assessed as mouse survival at 100 mg/kg, ip measured after 18 to 24 hrs; type: functional
Semliki Forest virus [14] = test: Antiviral activity against Semliki forest virus infected in Swiss Webster mouse assessed as mouse survival at 50 mg/kg, ip measured after 18 to 24 hrs; type: functional
Semliki Forest virus [15] = test: Antiviral activity against Semliki forest virus infected in Swiss Webster mouse assessed as mouse survival at 30 mg/kg, ip measured after 18 to 24 hrs; type: functional
Semliki Forest virus [16] = test: Antiviral activity against Semliki forest virus infected in Swiss Webster mouse assessed as mouse survival at 10 mg/kg, ip measured after 18 to 24 hrs; type: functional
Semliki Forest virus [17] = test: Antiviral activity against Semliki forest virus infected in Swiss Webster mouse assessed as mean survival time at 200 mg/kg, ip; type: functional
Semliki Forest virus [18] = test: Antiviral activity against Semliki forest virus infected in Swiss Webster mouse assessed as mean survival time at 100 mg/kg, ip; type: functional
Semliki Forest virus [19] = test: Antiviral activity against Semliki forest virus infected in Swiss Webster mouse assessed as mean survival time at 50 mg/kg, ip; type: functional
Semliki Forest virus [20] = test: Antiviral activity against Semliki forest virus infected in Swiss Webster mouse assessed as mean survival time at 30 mg/kg, ip; type: functional
Semliki Forest virus [21] = test: Antiviral activity against Semliki forest virus infected in Swiss Webster mouse assessed as mean survival time at 10 mg/kg, ip; type: functional
Staphylococcus aureus = test: Bactericidal activity against Staphylococcus aureus ATCC 6538 by two-fold serial dilution assay; type: functional
Escherichia coli = test: Bactericidal activity against Escherichia coli NCTC 10418 by two-fold serial dilution assay; type: functional
Pseudomonas aeruginosa [22] = test: Antimicrobial activity against Pseudomonas aeruginosa ATCC 9027 by two-fold serial dilution assay; type: functional
Pseudomonas aeruginosa [23] = test: Bactericidal activity against Pseudomonas aeruginosa ATCC 9027 by two-fold serial dilution assay; type: functional

Chain of CDK7/Cyclin H/MNAT1 (P51946 whole entry, the tested form may be a part): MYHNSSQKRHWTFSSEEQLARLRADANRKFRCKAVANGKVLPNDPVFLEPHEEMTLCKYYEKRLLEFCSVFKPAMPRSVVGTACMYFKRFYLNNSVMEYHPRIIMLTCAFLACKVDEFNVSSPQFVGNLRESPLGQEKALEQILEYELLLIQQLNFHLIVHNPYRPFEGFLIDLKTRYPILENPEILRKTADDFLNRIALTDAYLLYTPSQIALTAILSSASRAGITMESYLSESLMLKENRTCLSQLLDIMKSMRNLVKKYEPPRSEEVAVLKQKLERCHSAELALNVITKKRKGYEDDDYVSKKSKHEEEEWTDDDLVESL
Chain of CDK7/Cyclin H/MNAT1 (P50613 whole entry, the tested form may be a part): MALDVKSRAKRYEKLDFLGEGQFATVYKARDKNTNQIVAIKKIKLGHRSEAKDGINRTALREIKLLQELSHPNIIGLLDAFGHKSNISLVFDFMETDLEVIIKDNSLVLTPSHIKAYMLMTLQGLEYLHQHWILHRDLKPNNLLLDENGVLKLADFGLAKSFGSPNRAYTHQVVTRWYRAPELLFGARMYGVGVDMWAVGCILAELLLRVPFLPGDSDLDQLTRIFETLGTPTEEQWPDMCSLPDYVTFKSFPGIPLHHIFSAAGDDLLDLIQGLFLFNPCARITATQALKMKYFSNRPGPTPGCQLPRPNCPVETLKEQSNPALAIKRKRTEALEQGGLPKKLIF
Chain of CDK7/Cyclin H/MNAT1 (P51948 whole entry, further chain, the tested form may be a part): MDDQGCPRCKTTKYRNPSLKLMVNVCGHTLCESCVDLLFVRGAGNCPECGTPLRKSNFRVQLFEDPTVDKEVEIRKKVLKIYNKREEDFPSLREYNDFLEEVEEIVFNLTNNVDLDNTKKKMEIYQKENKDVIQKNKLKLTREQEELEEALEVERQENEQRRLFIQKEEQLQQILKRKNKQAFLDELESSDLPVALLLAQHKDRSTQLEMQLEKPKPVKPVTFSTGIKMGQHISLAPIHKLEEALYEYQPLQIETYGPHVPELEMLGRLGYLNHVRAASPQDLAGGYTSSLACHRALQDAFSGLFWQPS
Chain of Cyclin-dependent kinase 1/cyclin B1 (P06493 whole entry): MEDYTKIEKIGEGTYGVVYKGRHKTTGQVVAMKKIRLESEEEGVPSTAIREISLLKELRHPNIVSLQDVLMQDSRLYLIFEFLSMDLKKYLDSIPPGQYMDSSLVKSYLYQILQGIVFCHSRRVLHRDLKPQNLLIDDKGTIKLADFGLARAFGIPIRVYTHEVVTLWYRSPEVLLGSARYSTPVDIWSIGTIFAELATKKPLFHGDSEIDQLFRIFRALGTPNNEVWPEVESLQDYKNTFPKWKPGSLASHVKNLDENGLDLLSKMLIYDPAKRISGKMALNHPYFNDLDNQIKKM
Chain of Cyclin-dependent kinase 1/cyclin B1 (P14635 whole entry, further chain): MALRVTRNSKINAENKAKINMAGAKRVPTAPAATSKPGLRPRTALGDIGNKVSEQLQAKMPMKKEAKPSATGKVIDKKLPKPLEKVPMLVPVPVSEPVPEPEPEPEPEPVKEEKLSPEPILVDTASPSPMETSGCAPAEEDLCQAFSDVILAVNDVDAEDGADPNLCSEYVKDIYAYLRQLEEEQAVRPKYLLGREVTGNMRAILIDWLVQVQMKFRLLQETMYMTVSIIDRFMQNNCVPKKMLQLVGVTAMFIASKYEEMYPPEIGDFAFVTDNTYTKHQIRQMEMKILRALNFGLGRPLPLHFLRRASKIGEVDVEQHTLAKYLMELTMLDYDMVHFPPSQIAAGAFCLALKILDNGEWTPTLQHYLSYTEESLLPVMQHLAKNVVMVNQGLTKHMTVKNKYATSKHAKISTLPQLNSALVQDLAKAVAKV
Chain of CDK6/cyclin D1 (P24385 whole entry, the tested form may be a part): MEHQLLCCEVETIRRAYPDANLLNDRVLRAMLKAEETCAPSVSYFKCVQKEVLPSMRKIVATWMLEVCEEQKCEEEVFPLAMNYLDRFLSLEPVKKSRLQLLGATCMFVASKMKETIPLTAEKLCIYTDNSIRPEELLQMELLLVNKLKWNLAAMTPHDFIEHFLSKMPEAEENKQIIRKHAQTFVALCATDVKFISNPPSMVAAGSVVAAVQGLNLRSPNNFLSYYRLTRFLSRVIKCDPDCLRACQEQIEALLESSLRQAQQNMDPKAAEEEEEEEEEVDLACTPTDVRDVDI
Chain of CDK6/cyclin D1 (Q00534 whole entry, the tested form may be a part): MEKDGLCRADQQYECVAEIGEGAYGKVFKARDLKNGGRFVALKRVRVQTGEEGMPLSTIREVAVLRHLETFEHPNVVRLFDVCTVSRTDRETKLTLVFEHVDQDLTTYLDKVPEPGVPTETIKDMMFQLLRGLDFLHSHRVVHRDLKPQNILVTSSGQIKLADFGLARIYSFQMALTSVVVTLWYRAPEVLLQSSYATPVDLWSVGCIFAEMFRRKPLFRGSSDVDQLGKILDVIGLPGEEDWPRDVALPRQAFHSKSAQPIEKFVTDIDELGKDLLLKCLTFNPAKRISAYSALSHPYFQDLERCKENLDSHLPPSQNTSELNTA
Chain of Cyclin-dependent kinase 4/cyclin D1 (P11802 whole entry, the tested form may be a part): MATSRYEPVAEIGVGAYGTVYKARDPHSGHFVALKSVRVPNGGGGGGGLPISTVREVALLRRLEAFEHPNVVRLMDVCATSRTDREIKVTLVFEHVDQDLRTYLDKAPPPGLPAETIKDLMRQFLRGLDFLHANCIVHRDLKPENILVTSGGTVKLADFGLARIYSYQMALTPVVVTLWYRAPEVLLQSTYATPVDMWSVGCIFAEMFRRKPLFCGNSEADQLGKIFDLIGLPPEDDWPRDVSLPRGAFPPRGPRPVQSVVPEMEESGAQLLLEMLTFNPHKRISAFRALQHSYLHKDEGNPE
Chain of Cyclin-dependent kinase 4/cyclin D1 (P24385 whole entry, further chain, the tested form may be a part): as the sequence (P24385 whole entry, the tested form may be a part) above
Chain of CDK9/cyclin T1 (O60563 whole entry, the tested form may be a part): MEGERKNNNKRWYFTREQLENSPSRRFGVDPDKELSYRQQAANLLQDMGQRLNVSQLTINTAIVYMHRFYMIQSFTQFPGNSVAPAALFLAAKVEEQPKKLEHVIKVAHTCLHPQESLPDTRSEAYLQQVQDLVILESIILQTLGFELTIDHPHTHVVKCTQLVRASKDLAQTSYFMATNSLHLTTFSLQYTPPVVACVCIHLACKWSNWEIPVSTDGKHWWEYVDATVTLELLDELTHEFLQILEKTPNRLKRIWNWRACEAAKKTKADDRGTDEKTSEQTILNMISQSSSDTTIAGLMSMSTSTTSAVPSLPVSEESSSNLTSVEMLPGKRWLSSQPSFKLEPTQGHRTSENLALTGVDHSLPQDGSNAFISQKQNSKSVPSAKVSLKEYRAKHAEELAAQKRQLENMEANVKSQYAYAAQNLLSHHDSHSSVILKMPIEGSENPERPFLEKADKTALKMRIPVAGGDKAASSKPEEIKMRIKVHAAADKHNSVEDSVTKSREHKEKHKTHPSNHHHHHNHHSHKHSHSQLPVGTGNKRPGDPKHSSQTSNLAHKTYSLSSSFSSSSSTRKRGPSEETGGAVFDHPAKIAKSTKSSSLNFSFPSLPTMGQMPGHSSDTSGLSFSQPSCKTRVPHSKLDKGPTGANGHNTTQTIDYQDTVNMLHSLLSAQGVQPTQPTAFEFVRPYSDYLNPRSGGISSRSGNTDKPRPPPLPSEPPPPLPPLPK
Chain of CDK9/cyclin T1 (P50750 whole entry, the tested form may be a part): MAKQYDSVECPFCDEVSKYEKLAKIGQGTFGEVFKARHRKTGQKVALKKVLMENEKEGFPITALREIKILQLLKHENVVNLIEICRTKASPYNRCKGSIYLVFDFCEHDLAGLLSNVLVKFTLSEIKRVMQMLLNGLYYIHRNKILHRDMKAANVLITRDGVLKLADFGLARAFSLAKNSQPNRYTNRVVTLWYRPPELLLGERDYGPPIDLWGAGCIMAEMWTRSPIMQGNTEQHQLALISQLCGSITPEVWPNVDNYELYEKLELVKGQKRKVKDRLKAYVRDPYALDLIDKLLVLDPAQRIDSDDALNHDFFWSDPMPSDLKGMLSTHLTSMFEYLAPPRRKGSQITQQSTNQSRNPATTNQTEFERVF

In the case of `CC(C)c1n[nH]c2c(NCc3ccccc3O)ncnc12`, the IC50 [1] is reported as 440 nM and the IC50 (K562 [2]) is reported as 54000 nM.

Work on `O=c1[nH]cnc2c(-c3ccc(Br)cc3)n[nH]c12` yielded an MIC (Candida albicans [3]) of 250 µg/mL (≈ 859 µM) and an MFC (Candida albicans [4]) of 250 µg/mL (≈ 859 µM).

`CCCCCNc1ncnc2c(C)n[nH]c12` gave an IC50 (Nicotiana tabacum [5]) of 30 nM, an IC50 (Nicotiana tabacum [6]) of 200 nM and a GI50 (Nicotiana tabacum [7]) of 25 nM. For the same compound, the TGI (Nicotiana tabacum [7]) was 50 nM, the GI50 (Nicotiana tabacum [8]) was 20 nM and the TGI (Nicotiana tabacum [8]) was 50 nM.

For `Cc1n[nH]c2c(NCCC(C)C)ncnc12`, the IC50 (Nicotiana tabacum [5]) was 100 nM and the IC50 (Nicotiana tabacum [6]) was 730 nM.

`CC[C@@H](CO)Nc1nc(NCc2ccccc2N)c2[nH]nc(C(C)C)c2n1` showed an IC50 [9] of 15.3 nM, a GI50 (MCF7) of 10900 nM and a GI50 (K562 [10]) of 22300 nM.

With `CC(C)c1n[nH]c2c(NCc3ccccc3)nc(NC3CCC(N)CC3)nc12` (stereo not given) the IC50 [11] was 6600 nM and the IC50 (CDK7/Cyclin H/MNAT1) was greater than 100000 nM.

For `Cc1nn([C@@H]2O[C@H](CO)[C@@H](O)[C@H]2O)c2c(=O)n(-c3ccc(Cl)cc3)cnc12`, the EC50 (Human alphaherpesvirus 1) was 50000 nM.

`Cc1n[nH]c2c(NCc3ccccc3)ncnc12` gave a GI50 (Nicotiana tabacum [7]) of 30 nM, a TGI (Nicotiana tabacum [7]) of 100 nM and a GI50 (Nicotiana tabacum [8]) of 40 nM. The TGI (Nicotiana tabacum [8]) was 150 nM.

`CCCCCCNc1ncnc2c(C)n[nH]c12` gave an IC50 (Nicotiana tabacum [5]) of 30 nM and an IC50 (Nicotiana tabacum [6]) of 500 nM.

`COc1ccc(Cn2cnc3c(C)nn([C@@H]4O[C@H](CO)[C@@H](O)[C@H]4O)c3c2=O)cc1` was tested, and the EC50 (Human alphaherpesvirus 1) was 49500 nM.

With `CC(C)c1n[nH]c2c(NCc3ccccc3)nc(NC3CCCCC3N)nc12` (stereo not given) the IC50 (CDK6/cyclin D1) was greater than 100000 nM, the IC50 (CDK7/Cyclin H/MNAT1) was greater than 100000 nM and the IC50 (CDK9/cyclin T1) was greater than 1000 nM.

`Cn1nc([C@@H]2O[C@H](CO)[C@@H](O)[C@H]2O)c2nc(N)[nH]c(=O)c21` showed a survival at 200 mg/kg (Semliki Forest virus [12]) of 58%, a survival at 100 mg/kg (Semliki Forest virus [13]) of 67% and a survival at 50 mg/kg (Semliki Forest virus [14]) of 67%. The survival at 30 mg/kg (Semliki Forest virus [15]) was 50%, the survival at 10 mg/kg (Semliki Forest virus [16]) was 8% and the MST (Semliki Forest virus [17]) was 7 days. It also gave an MST (Semliki Forest virus [18]) of 8 days, an MST (Semliki Forest virus [19]) of 6 days and an MST (Semliki Forest virus [20]) of 9.2 days. For the same compound, the MST (Semliki Forest virus [21]) was 9.6 days.

Compound `CCCCn1cnc2c(C)nn([C@@H]3O[C@H](CO)[C@@H](O)[C@H]3O)c2c1=O` has an EC50 (Human alphaherpesvirus 1) of 152000 nM.

With `CC(C)c1n[nH]c2c(NCc3ccccc3N)nc(NC[C@@H](C)O)nc12` the IC50 [9] was 16.5 nM, the GI50 (MCF7) was 4400 nM and the GI50 (K562 [10]) was 15500 nM.

Work on `CC[C@H](CO)Nc1nc(NCc2ccccc2N)c2[nH]nc(C(C)C)c2n1` yielded an IC50 [9] of 10.5 nM, a GI50 (MCF7) of 2800 nM and a GI50 (K562 [10]) of 9200 nM.

`CC1(C)S[C@@H]2[C@H](NC(=O)[C@H](N)c3ccccc3)C(=O)N2[C@H]1C(=O)O` [AMPICILLIN] gave an MBC (Staphylococcus aureus) of 15.6 µg/mL (≈ 44.7 µM), an MBC (Escherichia coli) of 31.2 µg/mL (≈ 89.4 µM) and an MIC (Pseudomonas aeruginosa [22]) of 250 µg/mL (≈ 715 µM). The MBC (Pseudomonas aeruginosa [23]) was 500 µg/mL (≈ 1430 µM).

With `Clc1ccccc1C(c1ccccc1)(c1ccccc1)n1ccnc1` [CLOTRIMAZOLE] the MIC (Candida albicans [3]) was 7.81 µg/mL (≈ 22.6 µM) and the MFC (Candida albicans [4]) was 15.6 µg/mL (≈ 45.3 µM).

`O=c1[nH]c(=O)n([C@H]2C[C@H](O)[C@@H](CO)O2)cc1I` [IDOXURIDINE] gave an EC50 (Human alphaherpesvirus 1) of 1200 nM.

`Nc1nc(=O)c2sc(=O)n([C@@H]3O[C@H](CO)[C@@H](O)[C@H]3O)c2[nH]1` [ISATORIBINE] gave a survival at 100 mg/kg (Semliki Forest virus [13]) of 92% and an MST (Semliki Forest virus [18]) of 8 days.

`Cn1cnc2c(NCc3ccccc3)nc(NCCO)nc21` [OLOMOUCINE] was tested, and the IC50 (K562 [2]) was 163000 nM.
